{
  "source": "patent US20080014247A1",
  "about": "“METAL-CONTAINING FORMULATIONS AND METHODS OF USE” (Nucryst Pharmaceuticals, priority 2006, published 2008)",
  "key": {"DNBS-induced colitis [1]": {"system": "DNBS-induced colitis", "test": "DNBS-induced colitis in rat: total IBD score", "assay_type": "in vivo"}, "[2]": {"test": "DNBS-induced colitis in rat: body weight", "assay_type": "in vivo", "details": "rats with DNBS colitis, intracolonic or oral treatment"}, "DNBS-induced colitis [3]": {"system": "DNBS-induced colitis", "test": "DNBS-induced colitis in rat: colon histopathological inflammation score", "assay_type": "in vivo", "details": "oral 100 mg/kg, five days", "description": "Histopathology: A piece of colonic tissue at 2-4 cm proximal to the anus was excised and fixed in 10% formalin and the sections were stained with hematoxylin and eosin. The remaining length of the colonic tissues was stored at −80° C. for subsequent biochemical assays. The histology slides were examined by a veterinary pathologist who was blinded to the treatment groups. The extent of microscopic mucosal damage of the colon was scored on scale of 0-5 as described with slight modification: 0=normal histological appearance; 1=histological damage limited to surface epithelium, mild infiltration of the submucosa; 2=focal ulceration and cell disruption limited to mucosa, abnormal appearance of colonic wall, mild infiltration of inflammatory cells; 3=focal, transmural inflammation and ulceration, with mild to moderate infiltration of inflammatory cells; 4=Extensive transmural ulceration and inflammation bordered by areas of normal mucosa, moderate infiltration of inflammatory cells; 5=extensive transmural ulceration and inflammation involving entire section from epithelium to serosa, severe infiltration of inflammatory cells."}, "IL-1β": {"system": "IL-1β", "test": "Immunohistochemical staining of colon tissue", "assay_type": "in vivo, rat", "details": "oral treatment, five days", "description": "(§1) Immunohistochemistry: A Universal Streptavidin/Biotin detection system (Thermo Shandon, Pittsburgh, Pa.) was used for immunohistochemical staining of formalin fixed, paraffin embedded biopsies of the colon. After dewaxing, and hydration, sections were treated with protein blocking agent to reduce non-specific binding of antibodies. The tissues were then incubated with rabbit anti-rat TNF-α, or mouse anti-rat IL-12 p70 antibodies (Biosource International, Inc, Camarillo, Calif.); rabbit anti-rat IL-1β (Serotec, Raleigh, N.C.) or rabbit anti-rat MMP-9 antibody (Chemicon International, Telecuma, Calif.) in 1% bovine serum albumin in phosphate buffered saline. Incubations with secondary antibodies, streptavidin/biotin, and chromogenic detection of peroxidase were performed according to the manufacturer's protocol. Sections were counterstained, dehydrated, mounted and examined. The intensity of the immuno-peroxidase staining was graded as described previously. Expression of cytokines was graded as: 0, no staining in the section; 1, less than 25% of the section; 2, 25-50% of the section; 3, 50-75% of the section; 4, >75% of the section with significant staining."}, "MMP-9 [4]": {"system": "MMP-9", "test": "Immunohistochemical staining of colon tissue", "assay_type": "in vivo, rat", "details": "oral treatment, five days", "description": "as §1"}, "TNF-α": {"system": "TNF-α", "test": "Immunohistochemical staining of colon tissue", "assay_type": "in vivo, rat", "details": "oral treatment, five days", "description": "as §1"}, "MMP-9 [5]": {"system": "MMP-9", "test": "Gelatin zymography of colonic homogenates", "assay_type": "in vivo, rat", "details": "oral 100 mg/kg", "description": "Gelatin Zymography Activities of MMP-9 and MMP-2 in colonic tissue homogenates were determined by gelatin zymography as described previously. Briefly, colonic homogenates were mixed with equal volume of zymograph sample buffer. Samples were loaded on a 10% SDS-polyacrylamide gel containing 0.1% gelatin. After electrophoresis, the SDS was removed from the gel by incubation with renaturing buffer containing 2% Triton-X-100 for 1 hour. The gel was incubated overnight in developing buffer containing 50 mM Tris-HCl, pH 7.8, 5 mM CaCl2, 0.2 M NaCl, 0.02% Brij-35. The gel was subsequently stained with Coumassie blue for 30 minutes and destained with destaining solution containing 8% acetic acid and 4% methanol. Gelatinolytic activity was determined as transparent bands against the blue background of stained gelatin. MMPs were identified by their molecular weight compared with the standards. Absence of a transparent band on the gel was evidenced as no MMP-9 or MMP-2 activity of the sample tested."}, "[6]": {"test": "Compatibility of nanocrystalline silver with excipients", "assay_type": "physicochemical", "details": "10% aqueous solution of excipient, 40° C. overnight"}, "Pseudomonas aeruginosa": {"system": "Pseudomonas aeruginosa", "test": "MIC assay (microdilution)", "assay_type": "cell-based"}, "Staphylococcus aureus": {"system": "Staphylococcus aureus", "test": "MIC assay (microdilution)", "assay_type": "cell-based", "details": "lactate solutions"}, "[7]": {"system": "Staphylococcus epidermidis", "test": "MIC assay (microdilution)", "assay_type": "cell-based", "details": "S. epiderm (ATCC); lactate solutions"}, "Streptococcus pyogenes": {"system": "Streptococcus pyogenes", "test": "MIC assay (microdilution)", "assay_type": "cell-based", "details": "lactate solutions"}, "Streptococcus pneumoniae": {"system": "Streptococcus pneumoniae", "test": "MIC assay (microdilution)", "assay_type": "cell-based", "details": "lactate solutions"}, "Escherichia coli": {"system": "Escherichia coli", "test": "MIC assay (microdilution)", "assay_type": "cell-based"}, "[8]": {"system": "Mycobacterium tuberculosis H37Ra (ATCC 25177)", "test": "microbe, parasite or virus in culture", "assay_type": "cell-based"}, "Enterobacter cloacae": {"system": "Enterobacter cloacae", "test": "MIC assay (microdilution)", "assay_type": "cell-based"}},
  "note": "Entries after “also recorded” stand apart in the source; their conditions may differ. Where two headings read alike, the source gives them in different places.",
  "data": [
    {"compound": "O=C(O)c1cc(/N=N/c2ccc(S(=O)(=O)Nc3ccccn3)cc2)ccc1O", "note": "[sulfasalazine, salicylazosulfapyridine]", "values": [
      {"measurement": "total IBD score", "setting": "DNBS-induced colitis [1]; intracolonic 100 mg/kg, five days", "result": "Significant reduction of IBD score; also recorded: significantly reduced total IBD score"},
      {"measurement": "total IBD score", "setting": "DNBS-induced colitis [1]; intracolonic 100 mg/kg, five days, listed as Sulfasalazine", "result": "significantly reduced total IBD score"},
      {"measurement": "total IBD score", "setting": "DNBS-induced colitis [1]; oral 100 mg/kg, five days", "result": "significant reduction of the IBD score"},
      {"measurement": "body weight", "setting": "[2]", "result": "started gaining body weight after one day of treatment"},
      {"measurement": "histopathological inflammation score", "setting": "DNBS-induced colitis [3]", "result": "significantly reduced the histopathological inflammation"},
      {"measurement": "expression of IL-1β in colonic tissue", "setting": "IL-1β", "result": "significantly reduced the expression of TNF-α and IL-1β"},
      {"measurement": "expression of MMP-9 in colonic tissue", "setting": "MMP-9 [4]", "result": "significantly reduced the expression of MMP-9"},
      {"measurement": "expression of TNF-α in colonic tissue", "setting": "TNF-α", "result": "significantly reduced the expression of TNF-α and IL-1β"},
      {"measurement": "MMP-9 activity", "setting": "MMP-9 [5]", "result": "reduced MMP-9 activity"}
    ]},
    {"compound": "Sodium parabens", "values": [
      {"measurement": "Reaction with nanocrystalline silver", "setting": "[6]", "result": "Precipitation"}
    ]},
    {"compound": "CCCCCCCCCCCCCCCCCCO", "note": "[Cetearyl alcohol]", "values": [
      {"measurement": "Reaction with nanocrystalline silver", "setting": "[6]", "result": "Light brown/green/black"}
    ]},
    {"compound": "Benzalkonium chloride [BAC]", "values": [
      {"measurement": "MIC", "setting": "Pseudomonas aeruginosa; isolate NP220 (BAC-sensitive)", "result": 63, "unit": "µg/mL"},
      {"measurement": "MIC", "setting": "Pseudomonas aeruginosa; isolate NP221 (BAC-resistant)", "result": 4000, "unit": "µg/mL"},
      {"measurement": "MIC", "setting": "Pseudomonas aeruginosa; isolate NP222 (BAC-sensitive)", "result": 63, "unit": "µg/mL"}
    ]},
    {"compound": "CCCCCCCCCCCCCCCCCC(=O)O", "note": "[Stearic acid]", "values": [
      {"measurement": "Reaction with nanocrystalline silver", "setting": "[6]", "result": "Grey color - no discoloration"}
    ]},
    {"compound": "O=C([O-])c1ccccc1.[Na+]", "note": "[Sodium benzoate]", "values": [
      {"measurement": "Reaction with nanocrystalline silver", "setting": "[6]", "result": "White precipitate"}
    ]},
    {"compound": "silver oxide [Ag2O]", "values": [
      {"measurement": "MIC", "setting": "Staphylococcus aureus; S. aureus (ATCC)", "result": 3, "unit": "µg/mL"},
      {"measurement": "MIC", "setting": "Staphylococcus aureus; S. aureus (clin.)", "result": 6, "unit": "µg/mL"},
      {"measurement": "MIC", "setting": "[7]", "result": 2, "unit": "µg/mL"},
      {"measurement": "MIC", "setting": "Streptococcus pyogenes; S. pyog (clin. 303)", "result": 2, "unit": "µg/mL"},
      {"measurement": "MIC", "setting": "Streptococcus pyogenes; S. pyog (clin. 304)", "result": 3, "unit": "µg/mL"},
      {"measurement": "MIC", "setting": "Streptococcus pneumoniae; S. pneumo (clin 314)", "result": 3, "unit": "µg/mL"},
      {"measurement": "MIC", "setting": "Streptococcus pneumoniae; S. pneumo (clin 315)", "result": 2, "unit": "µg/mL"},
      {"measurement": "MIC", "setting": "Pseudomonas aeruginosa; P. aerug (ATCC), lactate solutions", "result": 0.8, "unit": "µg/mL"},
      {"measurement": "MIC", "setting": "Pseudomonas aeruginosa; P. aerug. (clin.), lactate solutions", "result": 2, "unit": "µg/mL"},
      {"measurement": "MIC", "setting": "Escherichia coli; E. coli (ATCC), lactate solutions", "result": 0.8, "unit": "µg/mL"},
      {"measurement": "MIC", "setting": "[8]", "result": 2.5, "unit": "μg/ml silver"},
      {"measurement": "total IBD score", "setting": "DNBS-induced colitis [1]; 0.05% sonicated nanodispersion, 250 μl intracolonically once a day for five days", "result": "but not 0.15% and 0.05%, significantly reduced"},
      {"measurement": "total IBD score", "setting": "DNBS-induced colitis [1]; 0.15% sonicated nanodispersion, 250 μl intracolonically once a day for five days", "result": "but not 0.15% and 0.05%, significantly reduced"},
      {"measurement": "total IBD score", "setting": "DNBS-induced colitis [1]; 0.25% homogenized, 250 μl intracolonically once a day for five days", "result": "unable to show significant reduction"},
      {"measurement": "total IBD score", "setting": "DNBS-induced colitis [1]; 0.5% homogenized, 250 μl intracolonically once a day for five days", "result": "unable to show significant reduction"},
      {"measurement": "total IBD score", "setting": "DNBS-induced colitis [1]; 0.5% sonicated nanodispersion, 250 μl intracolonically once a day for five days, vs placebo", "result": "significantly reduced the total IBD score"},
      {"measurement": "total IBD score", "setting": "DNBS-induced colitis [1]; 1.5% sonicated nanodispersion, 250 μl intracolonically once a day for five days", "result": "significantly reduced the total IBD score"}
    ]},
    {"compound": "CC[C@@H](CO)NCCN[C@@H](CC)CO", "note": "[ethambutol]", "values": [
      {"measurement": "MIC", "setting": "[8]; Mycobacterium tuberculosis", "result": 2, "unit": "µg/mL"}
    ]},
    {"compound": "CCCCCCCCCCCCCCCCCC(=O)OCC(O)CO", "note": "(centres unmarked) [Glycerol monostearate]", "values": [
      {"measurement": "Reaction with nanocrystalline silver", "setting": "[6]", "result": "Brown discoloration"}
    ]},
    {"compound": "CC(O)CO", "note": "(centres unmarked) [Propylene glycol]", "values": [
      {"measurement": "Reaction with nanocrystalline silver", "setting": "[6]", "result": "Discoloration"}
    ]},
    {"compound": "CCCCCCCCCCCCCCCCO", "note": "[Cetyl alcohol]", "values": [
      {"measurement": "Reaction with nanocrystalline silver", "setting": "[6]", "result": "Grey color - no discoloration"}
    ]},
    {"compound": "OO", "note": "[Sample H2O2, hydrogen peroxide]", "values": [
      {"measurement": "Reaction with nanocrystalline silver", "setting": "[6]", "result": "Brown discoloration after drying"},
      {"measurement": "MIC", "setting": "Enterobacter cloacae; SOD and catalase +", "result": ">500", "unit": "µg/mL"},
      {"measurement": "MIC", "setting": "Enterobacter cloacae; SOD and catalase −", "result": 63, "unit": "µg/mL"},
      {"measurement": "MIC", "setting": "Escherichia coli; SOD and catalase +", "result": ">500", "unit": "µg/mL"},
      {"measurement": "MIC", "setting": "Escherichia coli; SOD and catalase −", "result": 31, "unit": "µg/mL"}
    ]},
    {"compound": "CCOCCOCCO", "note": "[Transcutol, diethylene glycol monoethyl ether]", "values": [
      {"measurement": "Reaction with nanocrystalline silver", "setting": "[6]", "result": "Grey color - no discoloration"}
    ]},
    {"compound": "CCCCCCCCCCCCCC(=O)OC(C)C", "note": "[Isopropyl myristate]", "values": [
      {"measurement": "Reaction with nanocrystalline silver", "setting": "[6]", "result": "Grey color - no discoloration"}
    ]},
    {"compound": "OCc1ccccc1", "note": "[Benzyl alcohol]", "values": [
      {"measurement": "Reaction with nanocrystalline silver", "setting": "[6]", "result": "Grey/slightly red"}
    ]},
    {"compound": "CCCOC(=O)c1ccc(O)cc1", "note": "[Propylparaben]", "values": [
      {"measurement": "Reaction with nanocrystalline silver", "setting": "[6]", "result": "Green discoloration"}
    ]},
    {"compound": "COC(=O)c1ccc(O)cc1", "note": "[Methylparaben]", "values": [
      {"measurement": "Reaction with nanocrystalline silver", "setting": "[6]", "result": "Brown discoloration"}
    ]}
  ]
}
